Measured values from ChEMBL document CHEMBL5038653, “A Brain-Penetrant and Bioavailable Pyrazolopiperazine BACE1 Inhibitor Elicits Sustained Reduction of Amyloid β In Vivo” (ACS Med Chem Lett, 2022).

Tests used:
[1] = In vivo inhibition of BACE1 in Beagle dog assessed as reduction of amyloid beta (1 to 42 residues) levels in CSF at 5 mg/kg, po measured at 8 to 24 hrs; format: functional, Canis lupus familiaris; set-up: scale not given: the % may be the effect or the level left; settings: time 8-24 hrs
hERG (KCNH2) = hERG (KCNH2) (Homo sapiens, UniProt Q12809); test: Inhibition of hERG expressed in HEK293 cells at 3 uM at -80 mV holding potential by automated patch-clamp method; format: toxicity, cell-based; settings: HEK293 cells expressing hERG
hERG (KCNH2), sequence (Q12809 whole entry): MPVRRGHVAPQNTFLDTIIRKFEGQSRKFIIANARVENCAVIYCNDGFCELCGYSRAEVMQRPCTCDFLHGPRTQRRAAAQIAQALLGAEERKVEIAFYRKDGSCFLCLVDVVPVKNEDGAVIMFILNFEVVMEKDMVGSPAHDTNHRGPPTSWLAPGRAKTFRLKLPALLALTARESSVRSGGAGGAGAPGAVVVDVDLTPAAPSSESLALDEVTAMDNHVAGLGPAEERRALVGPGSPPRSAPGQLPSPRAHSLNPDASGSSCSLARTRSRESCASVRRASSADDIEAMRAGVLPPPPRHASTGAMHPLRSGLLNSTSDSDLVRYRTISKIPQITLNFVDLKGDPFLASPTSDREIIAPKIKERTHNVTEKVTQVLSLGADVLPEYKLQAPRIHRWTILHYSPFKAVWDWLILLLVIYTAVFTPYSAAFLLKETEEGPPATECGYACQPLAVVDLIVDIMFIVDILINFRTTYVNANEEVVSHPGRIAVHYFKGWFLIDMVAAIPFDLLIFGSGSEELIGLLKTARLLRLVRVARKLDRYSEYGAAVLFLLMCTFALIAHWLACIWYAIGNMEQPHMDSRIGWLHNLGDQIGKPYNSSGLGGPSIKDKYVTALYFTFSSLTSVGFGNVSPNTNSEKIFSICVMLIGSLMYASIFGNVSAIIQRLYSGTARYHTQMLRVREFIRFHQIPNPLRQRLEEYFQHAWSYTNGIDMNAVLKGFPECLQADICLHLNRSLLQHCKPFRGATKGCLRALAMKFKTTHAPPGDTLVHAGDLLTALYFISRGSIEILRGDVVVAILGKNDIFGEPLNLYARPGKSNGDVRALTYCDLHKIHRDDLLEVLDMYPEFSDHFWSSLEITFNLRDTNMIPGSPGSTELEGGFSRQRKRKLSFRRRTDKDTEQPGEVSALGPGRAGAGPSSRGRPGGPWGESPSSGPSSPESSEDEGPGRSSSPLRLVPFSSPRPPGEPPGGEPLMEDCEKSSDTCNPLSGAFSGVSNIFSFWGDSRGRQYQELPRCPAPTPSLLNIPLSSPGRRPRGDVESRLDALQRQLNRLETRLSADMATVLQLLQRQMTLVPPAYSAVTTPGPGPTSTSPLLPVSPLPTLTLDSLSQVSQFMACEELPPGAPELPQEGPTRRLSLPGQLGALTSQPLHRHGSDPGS

Cathepsin D = Cathepsin D (Homo sapiens, UniProt P07339); test: Inhibition of Cathepsin D (unknown origin)
Cathepsin D, sequence (P07339 65-162 limits assumed): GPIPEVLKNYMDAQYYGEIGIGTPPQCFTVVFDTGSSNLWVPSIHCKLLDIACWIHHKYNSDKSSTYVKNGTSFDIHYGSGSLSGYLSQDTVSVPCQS
Cathepsin D, sequence (P07339 169-412 limits assumed): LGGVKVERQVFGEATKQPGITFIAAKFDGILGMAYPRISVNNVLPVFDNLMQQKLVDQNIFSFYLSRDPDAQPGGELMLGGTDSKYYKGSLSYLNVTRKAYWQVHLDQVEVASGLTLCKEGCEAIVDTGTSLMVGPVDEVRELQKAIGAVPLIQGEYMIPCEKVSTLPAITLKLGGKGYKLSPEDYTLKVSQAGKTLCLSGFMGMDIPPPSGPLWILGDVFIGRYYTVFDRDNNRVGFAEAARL

Beta-secretase 1 = Beta-secretase 1 (Homo sapiens, UniProt P56817); test: Inhibition of BACE1 (1 to 454 residues) (unknown origin) using APP harboring Swedish Lys/Met mutant-derived peptide as substrate by FRET assay
Beta-secretase 1, sequence (P56817 whole entry, the tested form may be a part): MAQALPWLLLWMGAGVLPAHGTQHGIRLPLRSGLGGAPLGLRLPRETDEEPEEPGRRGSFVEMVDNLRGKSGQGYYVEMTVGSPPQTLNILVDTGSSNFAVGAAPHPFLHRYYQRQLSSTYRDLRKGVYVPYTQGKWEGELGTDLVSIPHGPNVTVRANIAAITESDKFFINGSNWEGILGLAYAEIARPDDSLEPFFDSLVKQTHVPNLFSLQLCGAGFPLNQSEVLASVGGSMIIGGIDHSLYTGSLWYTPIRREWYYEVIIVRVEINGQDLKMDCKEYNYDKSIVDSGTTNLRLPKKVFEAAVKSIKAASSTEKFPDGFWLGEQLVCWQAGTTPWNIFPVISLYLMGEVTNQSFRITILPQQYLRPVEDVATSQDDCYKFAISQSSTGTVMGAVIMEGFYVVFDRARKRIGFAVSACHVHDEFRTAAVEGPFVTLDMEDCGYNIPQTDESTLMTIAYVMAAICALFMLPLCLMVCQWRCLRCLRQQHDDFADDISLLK

[2] = Ratio of apparent permeability across apical to basolateral side in the presence of P-gp inhibitor elacridar to the absence of P-gp inhibitor elacridar in dog MDCK-MDR1 cells at 5 uM incubated for 120 mins; format: ADME, cell-based, Canis lupus familiaris; settings: 2 h
[3] = Metabolic stability in mouse liver microsomes assessed as metabolite formation after 15 mins in presence of NADPH by LC-MS analysis; format: ADME, Microsome; settings: 0.25 h
[4] = Free drug concentration in mouse plasma measured after 4.5 hrs by HPLC-MS/MS method; format: ADME, cell-free
[5] = In vivo inhibition of BACE1 in Beagle dog assessed as reduction of amyloid beta (1 to 42 residues) levels in CSF at 2.5 mg/kg, po measured after 8 hrs by electrochemiluminescence assay; format: functional, Canis lupus familiaris; set-up: scale not given: the % may be the effect or the level left
[6] = Drug level in CD-1 mouse plasma at 10 mg/kg, po measured at 1 hr post dose; format: ADME, organism-based
[7] = Drug level in CD-1 mouse brain at 10 mg/kg, po measured at 1 hr post dose; format: ADME, organism-based; settings: read-out: Ct
[8] = AUC (0 to infinity) in rat at 0.25 mg/kg, iv; format: ADME, organism-based; set-up: route intravenous, time infinity, dose 0.25 mg/kg; settings: in vivo
[9] = AUC (0 to infinity) in dog at 0.25 mg/kg, iv; format: ADME, organism-based, Canis lupus familiaris; set-up: route intravenous, time infinity, dose 0.25 mg/kg; settings: in vivo
[10] = Clearance in rat plasma at 0.25 mg/kg, iv; format: ADME, organism-based
[11] = Clearance in dog plasma at 0.25 mg/kg, iv; format: ADME, organism-based, Canis lupus familiaris
[12] = Clearance in rat at 0.25 mg/kg, iv relative to liver blood flow; format: ADME, organism-based; settings: in vivo
[13] = Clearance in dog at 0.25 mg/kg, iv to liver blood flow; format: ADME, organism-based, Canis lupus familiaris; settings: in vivo
[14] = Volume of distribution at steady state in mouse at 0.28 mg/kg, iv; format: ADME, organism-based; settings: in vivo, read-out: Vdss
[15] = Volume of distribution at steady state in rat at 0.25 mg/kg, iv; format: ADME, organism-based; settings: in vivo, read-out: Vdss
[16] = Volume of distribution at steady state in dog at 0.25 mg/kg, iv; format: ADME, organism-based, Canis lupus familiaris; settings: in vivo, read-out: Vdss
[17] = Half life in dog at 0.25 mg/kg, iv; format: ADME, organism-based, Canis lupus familiaris; settings: in vivo
[18] = Tmax in mouse at 2.1 mg/kg, po; format: ADME, organism-based; settings: in vivo
[19] = Tmax in rat at 2.3 mg/kg, po; format: ADME, organism-based; settings: in vivo
[20] = AUC (0 to last) in rat at 2.5 mg/kg, po; format: ADME, organism-based; set-up: route oral, time 0 - last, dose 2.5 mg/kg; settings: in vivo
[21] = Oral bioavailability in mouse at 2.1 mg/kg; format: ADME, organism-based; settings: in vivo
[22] = Oral bioavailability in dog at 2.5 mg/kg; format: ADME, organism-based, Canis lupus familiaris; settings: in vivo
[23] = Cardiotoxicity in guinea pig assessed as effect on heart rate upto 5 mg/kg, iv administered over 10 mins at 30 mins interval by ECG analysis; format: toxicity, organism-based, Cavia porcellus; settings: in vivo
[24] = Drug level in CD-1 mouse plasma at 10 mg/kg, po measured at 2 hr post dose; format: ADME, organism-based
[25] = Drug level in CD-1 mouse plasma at 10 mg/kg, po measured at 4 hr post dose; format: ADME, organism-based
Beta-secretase 2 = target: T1, Beta-secretase 2 (Homo sapiens, UniProt Q9Y5Z0); test: Inhibition of BACE2 (unknown origin)
T1 sequence (Q9Y5Z0 whole entry): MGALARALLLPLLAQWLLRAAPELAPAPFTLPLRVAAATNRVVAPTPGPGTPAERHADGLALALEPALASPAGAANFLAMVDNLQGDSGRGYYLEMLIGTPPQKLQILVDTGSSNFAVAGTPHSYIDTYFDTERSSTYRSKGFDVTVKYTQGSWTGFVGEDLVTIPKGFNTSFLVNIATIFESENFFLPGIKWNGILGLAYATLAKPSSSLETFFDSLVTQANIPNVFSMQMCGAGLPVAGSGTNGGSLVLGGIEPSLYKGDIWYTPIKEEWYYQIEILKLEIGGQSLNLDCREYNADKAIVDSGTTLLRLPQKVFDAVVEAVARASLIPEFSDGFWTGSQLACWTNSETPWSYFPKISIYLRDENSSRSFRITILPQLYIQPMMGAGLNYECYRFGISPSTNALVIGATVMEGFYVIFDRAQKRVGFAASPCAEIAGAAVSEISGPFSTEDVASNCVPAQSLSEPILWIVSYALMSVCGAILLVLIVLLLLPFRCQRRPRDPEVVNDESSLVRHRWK

Cytochrome P450 3A4 = Cytochrome P450 3A4 (Homo sapiens, UniProt P08684); test: Inhibition of human CYP3A4 using testosterone as substrate by fluorescence plate reader analysis; format: ADME
Cytochrome P450 3A4, sequence (P08684 whole entry): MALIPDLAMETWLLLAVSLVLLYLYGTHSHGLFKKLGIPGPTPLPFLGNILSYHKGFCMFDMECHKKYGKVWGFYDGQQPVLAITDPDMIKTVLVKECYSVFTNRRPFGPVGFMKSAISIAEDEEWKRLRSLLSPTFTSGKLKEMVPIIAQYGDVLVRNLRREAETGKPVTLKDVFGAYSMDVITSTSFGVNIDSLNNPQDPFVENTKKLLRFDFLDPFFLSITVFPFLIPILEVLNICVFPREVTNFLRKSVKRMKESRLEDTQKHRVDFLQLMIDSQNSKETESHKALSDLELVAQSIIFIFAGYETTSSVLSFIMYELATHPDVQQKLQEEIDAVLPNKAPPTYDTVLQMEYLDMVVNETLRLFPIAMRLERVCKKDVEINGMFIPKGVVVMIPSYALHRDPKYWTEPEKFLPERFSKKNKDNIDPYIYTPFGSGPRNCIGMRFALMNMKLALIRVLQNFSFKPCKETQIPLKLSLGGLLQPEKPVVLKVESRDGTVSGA

Cytochrome P450 2C9 = Cytochrome P450 2C9 (Homo sapiens, UniProt P11712); test: Inhibition of human CYP2C9 by fluorescence plate reader analysis; format: ADME
Cytochrome P450 2C9, sequence (P11712 whole entry): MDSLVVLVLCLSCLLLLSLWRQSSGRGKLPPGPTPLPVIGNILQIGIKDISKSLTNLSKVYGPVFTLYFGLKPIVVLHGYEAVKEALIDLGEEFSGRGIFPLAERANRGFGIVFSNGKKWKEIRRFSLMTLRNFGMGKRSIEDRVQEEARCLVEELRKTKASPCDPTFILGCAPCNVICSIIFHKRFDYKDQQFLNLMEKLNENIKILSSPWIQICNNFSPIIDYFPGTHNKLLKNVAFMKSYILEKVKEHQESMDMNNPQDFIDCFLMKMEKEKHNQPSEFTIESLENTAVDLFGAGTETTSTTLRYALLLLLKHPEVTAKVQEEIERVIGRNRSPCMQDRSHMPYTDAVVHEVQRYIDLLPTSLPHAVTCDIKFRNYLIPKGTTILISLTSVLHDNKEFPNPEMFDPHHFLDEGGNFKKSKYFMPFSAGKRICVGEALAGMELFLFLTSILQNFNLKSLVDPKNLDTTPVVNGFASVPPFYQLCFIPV

Cytochrome P450 2C19 = Cytochrome P450 2C19 (Homo sapiens, UniProt P33261); test: Inhibition of human CYP2C19 by fluorescence plate reader analysis; format: ADME
Cytochrome P450 2C19, sequence (P33261 whole entry): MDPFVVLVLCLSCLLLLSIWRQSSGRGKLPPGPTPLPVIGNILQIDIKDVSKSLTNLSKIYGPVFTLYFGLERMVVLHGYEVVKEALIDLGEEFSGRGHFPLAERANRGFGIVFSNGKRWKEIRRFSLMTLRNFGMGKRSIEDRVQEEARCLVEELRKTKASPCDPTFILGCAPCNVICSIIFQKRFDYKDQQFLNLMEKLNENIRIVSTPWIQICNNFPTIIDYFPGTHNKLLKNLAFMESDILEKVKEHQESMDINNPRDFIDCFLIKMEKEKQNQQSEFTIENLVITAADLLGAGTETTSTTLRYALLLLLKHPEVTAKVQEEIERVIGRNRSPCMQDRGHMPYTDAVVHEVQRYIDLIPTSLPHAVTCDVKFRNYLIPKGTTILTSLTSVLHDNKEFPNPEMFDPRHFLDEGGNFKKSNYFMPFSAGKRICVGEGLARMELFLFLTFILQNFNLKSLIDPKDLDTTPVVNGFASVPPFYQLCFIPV

[26] = Cardiotoxicity in guinea pig assessed as effect on blood pressure upto 5 mg/kg, iv administered over 10 mins at 30 mins interval; format: toxicity, organism-based, Cavia porcellus; settings: in vivo
[27] = Cardiotoxicity in guinea pig assessed as effect on QT interval upto 5 mg/kg, iv administered over 10 mins at 30 mins interval by ECG analysis; format: toxicity, organism-based, Cavia porcellus; settings: in vivo
[28] = Toxicity in Beagle dog assessed as behavioral changes at 0.31 to 5 mg/kg, po; format: organism-based, Canis lupus familiaris; settings: in vivo, dose 0.31-5 mg/kg
[29] = Toxicity in Beagle dog assessed as clinical pathological changes at 0.31 to 5 mg/kg, po; format: organism-based, Canis lupus familiaris; settings: in vivo, dose 0.31-5 mg/kg
[30] = In vivo inhibition of CD-1 mouse assessed as remaining amyloid beta (1 to 42 residues) levels in CSF at 10 mg/kg, po measured at 1 hr; format: functional
MDR1 = test: Efflux ratio of apparent permeability in dog MDCK-MDR1 cells; format: ADME, cell-based, Canis lupus familiaris

COc1cnc(C(=O)Nc2ccc(F)c([C@]3(C)Cn4nc(C#N)cc4C(N)=N3)c2)cn1
Activity [1]: 80%
inhibition at 3 µM (hERG (KCNH2)): 48%
IC50 (Cathepsin D): > 100 µM
IC50 (Beta-secretase 1): 0.0029 µM
Ratio [2]: 1.56
Drug metabolism [3]: 23%
fraction unbound at 4.5 h [4]: 0.05
Activity [5]: 85%
concentration at 1 h [6]: 591 ng/mL
concentration at 1 h [7]: 621 ng/g
AUC [8]: 219 ng·h/mL
AUC [9]: 654 ng·h/mL
clearance [10]: 19 mL/min/kg
clearance [11]: 6 mL/min/kg
CL [12]: 35%
CL [13]: 20%
Vd [14]: 5.3 L/kg
Vd [15]: 5.3 L/kg
Vd [16]: 4.2 L/kg
half-life [17]: 7.7 h
Tmax [18]: 2.3 h
Tmax [19]: 5 h
AUClast [20]: 3840 ng·h/mL
bioavailability [21]: > 100%
bioavailability [22]: 67%
Activity [23]: Non-Toxic
concentration at 2 h [24]: 866 ng/mL
concentration at 4 h [25]: 530 ng/mL
IC50 (Beta-secretase 2): 0.0115 µM
IC50 (Cytochrome P450 3A4): > 30 µM
IC50 (Cytochrome P450 2C9): > 30 µM
IC50 (Cytochrome P450 2C19): > 30 µM
Activity [26]: Non-Toxic
Activity [27]: Non-Toxic
Activity [28]: Non-Toxic
Activity [29]: Non-Toxic
Activity [30]: 74%
efflux ratio (MDR1): 5.3
